In the supplement of paper PMC4862054:
Where “and” joins values, the source holds several entries; their conditions need not be identical. Identical values can stand only once.

Experiments:
Settings in all cases: incubation time: 72 h
CAL-85-1 [1] = assay: normalised viability (% of control), CellTiter-Blue; higher = more viable cells (100 = DMSO, 0 = benzethonium chloride kill control)
Description: (§1)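 DSRT, CellTiter-Blue viability, 72 h incubation. Signal is normalised to DMSO and benzethonium chloride controls. Value is the normalised response at dose 1.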

BT-549 [2] = assay: as above
Description: as §1

MDA-MB-453 [3] = assay: as above
Description: as §1

MDA-MB-468 [4] = assay: as above
Description: as §1

MDA-MB-436 [5] = assay: as above
Description: as §1

CAL-148 [6] = assay: as above
Description: as §1

HCC1599 [7] = assay: as above
Description: as §1

BT-474 [8] = assay: as above
Description: as §1

HCC1937 [9] = assay: as above
Description: as §1

CAL-85-1 [10] = assay: drug sensitivity score (DSS), CellTiter-Blue viability (DSS (AUC-based score)); higher = stronger viability inhibition; extreme values may be limits of the assay
Description: (§2)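 DSRT with the CellTiter-Blue (resazurin reduction) viability readout, fluorescence 560/590 nm, 72 h incubation. Plates were normalised to DMSO and benzethonium chloride controls. DSS is computed from the area under the fitted dose-response curve (5 or 9 concentrations).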

BT-549 [11] = assay: as above
Description: as §2

MDA-MB-453 [12] = assay: as above
Description: as §2

MDA-MB-468 [13] = assay: as above
Description: as §2

SK-BR-3 = assay: as above
Description: as §2

CAL-51 = assay: as above
Description: as §2

CAL-120 = assay: as above
Description: as §2

MDA-MB-436 [14] = assay: as above
Description: as §2

DU-4475 = assay: as above
Description: as §2

HCC1143 = assay: as above
Description: as §2

CAL-148 [15] = assay: as above
Description: as §2

HCC1599 [16] = assay: as above
Description: as §2

BT-474 [17] = assay: as above
Description: as §2

HCC1937 [18] = assay: as above
Description: as §2

MFM-223 = assay: as above
Description: as §2

MDA-MB-231 = assay: as above
Description: as §2

Hs578T = assay: as above
Description: as §2

HDQ-P1 = assay: as above
Description: as §2

Row | SMILES | drug sensitivity score (CAL-85-1 [10]) | drug sensitivity score (BT-549 [11]) | drug sensitivity score (MDA-MB-453 [12]) | drug sensitivity score (MDA-MB-468 [13]) | drug sensitivity score (SK-BR-3) | drug sensitivity score (CAL-51) | drug sensitivity score (CAL-120) | drug sensitivity score (MDA-MB-436 [14]) | drug sensitivity score (DU-4475) | drug sensitivity score (HCC1143) | drug sensitivity score (CAL-148 [15]) | drug sensitivity score (HCC1599 [16]) | drug sensitivity score (BT-474 [17]) | drug sensitivity score (HCC1937 [18]) | drug sensitivity score (MFM-223) | drug sensitivity score (MDA-MB-231) | drug sensitivity score (Hs578T) | drug sensitivity score (HDQ-P1) | normalised viability (CAL-85-1 [1]; 0.1 nM) | normalised viability (BT-549 [2]; 0.1 nM) | other results
1 | COc1ccc(-c2cc3c(C)nc(N)nc3n([C@H]3CC[C@H](OCCO)CC3)c2=O)cn1 | 16.7 | 19.1 | 24.6 | 17.2 | 24.9 | 21.2 | 17.7 | 17.9 | 13.7 | 13.8 | 18.3 | 16.2 | 19.6 | 18.2 | 19.1 | 19.9 | 20.1 | 22.5 |  |  | normalised viability (CAL-85-1 [1]; 1 nM): 105%; normalised viability (BT-549 [2]; 1 nM): 96.5%; normalised viability (MDA-MB-453 [3]; 1 nM): 87.1%; normalised viability (MDA-MB-468 [4]; 1 nM): 104%; normalised viability (MDA-MB-436 [5]; 1 nM): 103%; normalised viability (CAL-148 [6]; 1 nM): 104%; normalised viability (HCC1599 [7]; 1 nM): 130%; normalised viability (BT-474 [8]; 1 nM): 100%; normalised viability (HCC1937 [9]; 1 nM): 90.5%
2 | Cc1cccc(-c2nn3c(c2-c2ccnc4ccc(C(N)=O)cc24)CCC3)n1 | 0 | 0 | 0 | 0 | 0 | 0 | 0 | 0 | 0 | 0 | 0 | 0 | 0 | 0 | 0 | 0 | 0 | 0 | 92.6% | 104% | normalised viability (MDA-MB-453 [3]; 0.1 nM): 108%; normalised viability (MDA-MB-468 [4]; 0.1 nM): 108%; normalised viability (MDA-MB-436 [5]; 0.1 nM): 128%; normalised viability (CAL-148 [6]; 0.1 nM): 104%; normalised viability (HCC1599 [7]; 0.1 nM): 99.3%; normalised viability (BT-474 [8]; 0.1 nM): 116%; normalised viability (HCC1937 [9]; 0.1 nM): 91.3%
3 | Cn1cc(CNCC2CCN(c3ncc(C(=O)NO)cn3)CC2)c2ccccc21 | 19.1 | 8.2 | 27.8 | 14.1 | 25.8 | 13.7 | 20.2 | 5.46 | 21.1 | 18.9 | 22.6 | 16.5 | 19.9 | 16.5 | 14.9 | 15 | 13.1 | 16.5 | 84.9% | 88.6% | normalised viability (MDA-MB-453 [3]; 0.1 nM): 98.8%; normalised viability (MDA-MB-468 [4]; 0.1 nM): 91.1%; normalised viability (MDA-MB-436 [5]; 0.1 nM): 87.9%; normalised viability (CAL-148 [6]; 0.1 nM): 103%; normalised viability (HCC1599 [7]; 0.1 nM): 101%; normalised viability (BT-474 [8]; 0.1 nM): 98.1%; normalised viability (HCC1937 [9]; 0.1 nM): 106%
4 | O=C(NC[C@H](O)CO)c1ccncc1Nc1ccc(I)cc1F | 6.9 | 0 | 4.94 | 0 | 0 | 3.9 | 7.78 | 0 | 35.2 | 13.8 | 3.49 | 4.05 | 0 | 0 | 0 | 21.9 | 0 | 10.3 |  |  | normalised viability (CAL-85-1 [1]; 1 nM): 92.1%; normalised viability (BT-549 [2]; 1 nM): 111%; normalised viability (MDA-MB-453 [3]; 1 nM): 87.9%; normalised viability (MDA-MB-468 [4]; 1 nM): 104%; normalised viability (MDA-MB-436 [5]; 1 nM): 124%; normalised viability (CAL-148 [6]; 1 nM): 92.3%; normalised viability (HCC1599 [7]; 1 nM): 108%; normalised viability (BT-474 [8]; 1 nM): 96.8%; normalised viability (HCC1937 [9]; 1 nM): 87.6%
5 | Nc1nc(=O)c2c([nH]1)NCC(CNc1ccc(C(=O)N[C@@H](CCC(=O)O)C(=O)O)cc1)N2C=O (mixture of isomers) [Folinic acid] | 0 | 0 | 0 | 0 | 0 | 0 | 0 | 0 | 0 | 0 | 0 | 0 | 0 | 0 | 0 | 0 | 0 | 0 |  |  | normalised viability (CAL-85-1 [1]; 0.099 nM): 98.4%; normalised viability (BT-549 [2]; 0.099 nM): 94.1%; normalised viability (MDA-MB-453 [3]; 0.099 nM): 104%; normalised viability (MDA-MB-468 [4]; 0.099 nM): 117%; normalised viability (MDA-MB-436 [5]; 0.099 nM): 113%; normalised viability (CAL-148 [6]; 0.099 nM): 102%; normalised viability (HCC1599 [7]; 0.099 nM): 117%; normalised viability (BT-474 [8]; 0.099 nM): 91.7%; normalised viability (HCC1937 [9]; 0.099 nM): 95.9%
6 | Cc1nc(Nc2ncc(C(=O)Nc3c(C)cccc3Cl)s2)cc(N2CCN(CCO)CC2)n1 [Dasatinib] | 8.12 and 9 | 8.07 and 9.99 | 0 | 0 | 0 | 12.4 and 11.1 | 11.2 and 13.7 | 7.53 and 9.46 | 0 | 6.83 and 7.93 | 0 | 0 | 0 | 0 | 2.5 and 1.76 | 9.89 and 15.2 | 10.6 and 12.3 | 19.3 and 21.9 | 97.2% and 88.5% | 101% and 89.2% | normalised viability (MDA-MB-453 [3]; 0.1 nM): 103% and 97.2%; normalised viability (MDA-MB-468 [4]; 0.1 nM): 109% and 100%; normalised viability (MDA-MB-436 [5]; 0.1 nM): 94.8% and 91.2%; normalised viability (CAL-148 [6]; 0.1 nM): 104% and 96.1%; normalised viability (HCC1599 [7]; 0.1 nM): 106% and 88.6%; normalised viability (BT-474 [8]; 0.1 nM): 97.5% and 85.4%
7 | COc1nc(N)nc2c1ncn2[C@@H]1O[C@H](CO)[C@@H](O)[C@@H]1O [Nelarabine] | 0 | 0 | 0 | 0 | 0 | 0 | 0 | 0 | 0 | 0 | 0 | 0 | 0 | 0 | 0 | 0 | 0 | 0 |  |  | normalised viability (CAL-85-1 [1]; 1 nM): 105% and 107%; normalised viability (BT-549 [2]; 1 nM): 92% and 96.5%; normalised viability (MDA-MB-453 [3]; 1 nM): 101% and 80.4%; normalised viability (MDA-MB-468 [4]; 1 nM): 103% and 92.2%; normalised viability (MDA-MB-436 [5]; 1 nM): 98.1% and 89.7%; normalised viability (CAL-148 [6]; 1 nM): 101% and 110%; normalised viability (HCC1599 [7]; 1 nM): 121% and 119%; normalised viability (HCC1937 [9]; 1 nM): 94.7% and 81.3%
8 | CNC(=O)c1cc(Oc2ccc(NC(=O)Nc3ccc(Cl)c(C(F)(F)F)c3)cc2)ccn1 [Sorafenib] |  |  | 0 | 0 | 0 | 0 | 0 | 0 | 0 | 0 | 0 | 0 | 0 | 0 |  | 0 | 0 | 0 | 104% and 103% | 119% and 96% | normalised viability (MDA-MB-453 [3]; 0.1 nM): 109% and 102%; normalised viability (MDA-MB-436 [5]; 0.1 nM): 88% and 95.8%; normalised viability (CAL-148 [6]; 0.1 nM): 112% and 109%; normalised viability (HCC1599 [7]; 0.1 nM): 106% and 123%; normalised viability (BT-474 [8]; 0.1 nM): 109% and 85.3%; normalised viability (HCC1937 [9]; 0.1 nM): 101% and 85.2%
9 | CCN(CC)CCNC(=O)c1c(C)[nH]c(/C=C2\C(=O)Nc3ccc(F)cc32)c1C [Sunitinib] | 0 | 0 | 0 | 0 | 0 | 0 | 0 | 0 | 0 | 0 | 0 | 0 | 0 | 0 | 0 | 0 | 0 |  | 89.3% and 104% | 87.1% and 85% | normalised viability (MDA-MB-453 [3]; 0.1 nM): 99.7% and 100%; normalised viability (MDA-MB-468 [4]; 0.1 nM): 94.7% and 98.5%; normalised viability (MDA-MB-436 [5]; 0.1 nM): 98.4% and 105%; normalised viability (CAL-148 [6]; 0.1 nM): 104% and 107%; normalised viability (HCC1599 [7]; 0.1 nM): 112% and 101%; normalised viability (BT-474 [8]; 0.1 nM): 81% and 89.3%; normalised viability (HCC1937 [9]; 0.1 nM): 91.7% and 88.2%
